Assay results as given in PubChem BioAssay (NCI).
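In this assay, cells in 96-well plates receive the compound at five concentrations for 48 hours. Endpoints are linearly interpolated between the surrounding concentrations. GI50 is the concentration that inhibits growth by half. Definition used: TGI = concentration required for complete inhibition of growth.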

What was measured:
Test in all cases: DTP human tumour cell line panel, 48 h
A549 NSCLC = system: A549 NSCLC
COLO 205 colon = system: COLO 205 colon
K-562 leukemia = system: K-562 leukemia
LOX IMVI melanoma = system: LOX IMVI melanoma
M19-MEL melanoma = system: M19-MEL melanoma
RXF 393 renal = system: RXF 393 renal
U251 CNS = system: U251 CNS
CCRF-CEM leukemia = system: CCRF-CEM leukemia
HOP-62 NSCLC = system: HOP-62 NSCLC
MOLT-4 leukemia = system: MOLT-4 leukemia

[C-]#[O+].[Cl][Sn]([Cl])[Cl].[Cl][Sn]([Cl])[Cl].[Pt].c1ccc([PH+](c2ccccc2)c2ccccc2)cc1.c1ccc([PH+](c2ccccc2)c2ccccc2)cc1
GI50 (A549 NSCLC): 44.1 µM
TGI (A549 NSCLC): > 100 µM
GI50 (COLO 205 colon): > 100 µM
TGI (COLO 205 colon): > 100 µM
GI50 (K-562 leukemia): 34.8 µM
TGI (K-562 leukemia): > 100 µM
GI50 (LOX IMVI melanoma): 14.2 µM
TGI (LOX IMVI melanoma): 41 µM
GI50 (M19-MEL melanoma): 41 µM
TGI (M19-MEL melanoma): > 100 µM
GI50 (RXF 393 renal): 1.57 µM
TGI (RXF 393 renal): 9.82 µM
GI50 (U251 CNS): 15.3 µM
TGI (U251 CNS): 42.5 µM

COc1cc(-c2nn(-c3ccc(NC(=O)Nc4ccc(Cl)c(Cl)c4)cc3)cc2-c2ccncc2)ccc1Cl
GI50 (A549 NSCLC): 3.58 µM
TGI (A549 NSCLC): > 100 µM
GI50 (CCRF-CEM leukemia): 3.16 µM
TGI (CCRF-CEM leukemia): > 100 µM
GI50 (COLO 205 colon): 1.97 µM
TGI (COLO 205 colon): 4.2 µM
GI50 (HOP-62 NSCLC): 3.79 µM
TGI (HOP-62 NSCLC): 22.3 µM
GI50 (K-562 leukemia): 3.51 µM
TGI (K-562 leukemia): > 100 µM
GI50 (LOX IMVI melanoma): 1.98 µM
TGI (LOX IMVI melanoma): 4.75 µM
GI50 (MOLT-4 leukemia): 3.27 µM
TGI (MOLT-4 leukemia): > 100 µM
GI50 (RXF 393 renal): 2.16 µM
TGI (RXF 393 renal): 7.49 µM
GI50 (U251 CNS): 2.84 µM
TGI (U251 CNS): 15.1 µM

CCNC(C)(C)C(SS)c1ccc(Br)cc1 (stereo not drawn)
TGI (A549 NSCLC): > 100 µM
TGI (CCRF-CEM leukemia): 60 µM
TGI (COLO 205 colon): > 100 µM
TGI (HOP-62 NSCLC): > 100 µM
TGI (K-562 leukemia): > 100 µM
TGI (LOX IMVI melanoma): 60.1 µM
TGI (MOLT-4 leukemia): 69.3 µM
TGI (RXF 393 renal): > 100 µM
TGI (U251 CNS): > 100 µM

CNC(=S)N/N=C1\CC(c2ccccc2)Oc2ccccc21 (stereo not drawn)
TGI (A549 NSCLC): > 100 µM
TGI (CCRF-CEM leukemia): > 100 µM
TGI (COLO 205 colon): > 100 µM
TGI (K-562 leukemia): > 100 µM
TGI (LOX IMVI melanoma): > 100 µM
TGI (M19-MEL melanoma): > 100 µM
TGI (MOLT-4 leukemia): > 100 µM
TGI (RXF 393 renal): > 100 µM
TGI (U251 CNS): > 100 µM

O=C(c1ccccc1)C(c1ccccc1)C1(O)C(=O)Nc2ccccc21 (stereo not drawn)
TGI (A549 NSCLC): > 100 µM
TGI (CCRF-CEM leukemia): > 100 µM
TGI (COLO 205 colon): > 100 µM
TGI (HOP-62 NSCLC): > 100 µM
TGI (K-562 leukemia): > 100 µM
TGI (LOX IMVI melanoma): > 100 µM
TGI (M19-MEL melanoma): > 100 µM
TGI (MOLT-4 leukemia): > 100 µM
TGI (RXF 393 renal): > 100 µM

COc1cc(/C=N/Nc2ncnc3c2cnn3C(C)C)ccc1O
GI50 (A549 NSCLC): 9.92 µM
TGI (A549 NSCLC): > 25 µM
GI50 (CCRF-CEM leukemia): 8.07 µM
TGI (CCRF-CEM leukemia): > 23.1 µM
GI50 (COLO 205 colon): 12.2 µM
TGI (COLO 205 colon): > 25 µM
GI50 (HOP-62 NSCLC): 6.5 µM
TGI (HOP-62 NSCLC): > 25 µM
GI50 (K-562 leukemia): 7.2 µM
TGI (K-562 leukemia): > 25 µM
GI50 (LOX IMVI melanoma): 3.79 µM
TGI (LOX IMVI melanoma): > 13.7 µM
GI50 (MOLT-4 leukemia): 6.53 µM
TGI (MOLT-4 leukemia): > 20.7 µM
GI50 (RXF 393 renal): 4.66 µM
TGI (RXF 393 renal): 12.7 µM
GI50 (U251 CNS): 8.11 µM
TGI (U251 CNS): > 25 µM

NC1=NC(c2ccc(Cl)cc2)N(c2ccc(S(=O)(=O)Nc3ncccn3)cc2)C(N)=N1 (stereo not drawn)
TGI (A549 NSCLC): > 100 µM
TGI (CCRF-CEM leukemia): > 100 µM
TGI (COLO 205 colon): > 100 µM
TGI (HOP-62 NSCLC): > 100 µM
TGI (K-562 leukemia): > 100 µM
TGI (LOX IMVI melanoma): > 100 µM
TGI (MOLT-4 leukemia): > 100 µM
TGI (RXF 393 renal): > 100 µM
TGI (U251 CNS): > 100 µM

Clc1ccccc1C(n1ncc2ccccc21)n1ncc2ccccc21
TGI (CCRF-CEM leukemia): > 100 µM
TGI (HOP-62 NSCLC): > 100 µM
TGI (K-562 leukemia): > 100 µM
TGI (LOX IMVI melanoma): > 100 µM
TGI (M19-MEL melanoma): > 100 µM
TGI (MOLT-4 leukemia): > 100 µM
TGI (RXF 393 renal): > 100 µM
TGI (U251 CNS): > 100 µM

[N-]=[N+]=Nc1ccc(CCN2CCN(c3cccc(C(F)(F)F)c3)CC2)cc1I
TGI (A549 NSCLC): > 100 µM
TGI (CCRF-CEM leukemia): > 100 µM
TGI (COLO 205 colon): > 100 µM
TGI (K-562 leukemia): > 100 µM
TGI (LOX IMVI melanoma): > 100 µM
TGI (M19-MEL melanoma): > 100 µM
TGI (MOLT-4 leukemia): > 100 µM
TGI (RXF 393 renal): > 100 µM
TGI (U251 CNS): > 100 µM
